Four compounds from patent US20240051914A1, “THE HEXADECANE TROMETHAMINE COMPOUND, ITS SYNTHESIS METHOD AND ITS APPLICATION IN ANTITUMOR AND ANTIFUNGAL ASPECTS” (Wuxi No.2 People's Hospital, priority 2021, published 2024) can be followed below.

Values after ≈ are worked out from the molar mass of the structure shown.

Holding throughout (assay type): cell-based
The test system of one assay is AGS. The experiment in a line: Antitumor function detection, CCK-8 inhibition ratio. The following applies: AGS cells, 72 hours. Here is the method:
(§1) Test Method: The logarithmic phase cells were seeded in 96-well plates with 3,000 cells per well/100 μl of density. After the cells were adhered, 100 μl of the test compounds with different concentrations were added. Design 6-8 concentration gradients. Set five parallel wells in per group and set the control group. After the compound and tumor cells were incubated for 72 hours, 10 μl of CCK-8 solution was added in per well. After the cells were incubated for 1-2 hours in the incubator, the optical density (OD) of per well was counted by Universal Microplate Spectrophotometer to calculate the inhibition ratio: inhibition ratio (IR %)=(1−TOD/COD)×100%, TOD: the mean OD of drug administration group, COD: the mean OD of solvent control. The dose-response curve was plotted in accordance to the drugs with different concentrations and the inhibition ratio of cells to obtain the Inhibitory concentration of drug (IC50). Test Method: The logarithmic phase cells were seeded in 96-well plates with 3,000 cells per well/100 l of density. After the cells were adhered, 100 l of the test compounds with different concentrations were added. Design 6-8 concentration gradients. Set five parallel wells in each group and set the control group. After the compound and tumor cells were incubated for 72 hours, 10 µl of CCK-8 solution was added in each well. After the cells were incubated for 1-2 hours in the incubator, the optical density (OD) of per well was counted by Universal Microplate Spectrophotometer to calculate the inhibition ratio: inhibition ratio (IR %)=(1−TOD/COD)×100%, TOD: the mean OD of drug administration group, COD: the mean OD of solvent control. The dose-response curve was plotted in accordance to the drugs with different concentrations and the inhibition ratio of cells to obtain the Inhibitory concentration of drug (IC50). Test Method: The logarithmic phase cells were seeded in 96-well plates with 3,000 cells per well/100 μl of density. After the cells were adhered, 100 μl of the test compounds with different concentrations were added. Design 6-8 concentration gradients. Set five parallel wells in each group and set the control group. After the compound and tumor cells were incubated for 72 hours, 10 µl of CCK-8 solution was added in each well. After the cells were incubated for 1-2 hours in the incubator, the optical density (OD) of per well was counted by Universal Microplate Spectrophotometer to calculate the inhibition ratio: inhibition ratio (IR %)=(1−TOD/COD)×100%, TOD: the mean OD of drug administration group, COD: the mean OD of solvent control. The dose-response curve was plotted in accordance to the drugs with different concentrations and the inhibition ratio of cells to obtain the Inhibitory concentration of drug (IC50). Test Method: The logarithmic phase cells were seeded in 96-well plates with 3,000 cells per well/100 μl of density. After the cells were adhered, 100 μl of the test compounds with different concentrations were added. Design 6-8 concentration gradients. Set five parallel wells in each group and set the control group. After the compound and tumor cells were incubated for 72 hours, 10 µl of CCK-8 solution was added in each well. After the cells were incubated for 1-2 hours in the incubator, the optical density (OD) of per well was counted by Universal Microplate Spectrophotometer to calculate the inhibition ratio: inhibition ratio (IR %)=(1−TOD/COD)×100%, TOD: the mean OD of drug administration group, COD: the mean OD of solvent control. The dose-response curve was plotted in accordance to the drugs with different concentrations and the inhibition ratio of cells to obtain the Inhibitory concentration of drug (IC50).

In another assay the test system is MKN-45. The description is as above. The following applies: MKN-45 cells, 72 hours. Here is the method:
as §1

For a further assay, the system named is SGC-7901. The description is as above. To be noted: SGC-7901 cells, 72 hours. Here is the method: as §1
Assay [1] has as its system gastric cancer cell HGC-27. The description is as above. The following applies: HGC-27 cells; for The inhibition ratio (%): 72 hours, CCK-8. Here is the method:
as §1

In a further assay the test system is Candida glabrata 337348. Nature of the assay: Anti-fungal function detection, MIC by dilution in RPMI1640. To be noted: for MIC: Nakaseomyces glabratus, 337348, Standard fungal strain Candida glabrata 337348, incubated for 35 and 24 h, read-out: Minimum Inhibitory Concentration, MIC. Here is the method: (§2) Test Method: The hexadecyl tromethamine hydrochloride salt solution was semi-diluted to five concentration gradients (100 μg/ml, 50 μg/ml, 25 μg/ml, 12.5 μg/ml and 6.25 μg/ml) by RPMI1640 fluid nutrient medium. 100 μl of every gradient solution was added in the 96-well plate for standby application. Standard fungal strain and clinical drug-resistant fungal strain in table 2 were chosen as the experimental fungus. The activation of the experimental fungus was obtained through that the experimental fungus were cultivated for 48 h at 30° C. The activated experimental fungus was matched to fungal suspension. Count and adjust the concentration using blood counting chamber. The moderate fungal suspension were added into RPMI1640 fluid nutrient medium to 0.5-2.5×10^3 cfμ/ml of final working concentration. 100 μl of above fungal suspension was added into the above 96-well plate with the hexadecyl tromethamine hydrochloride salt solution. Two parallel wells were set for each concentration gradient compound of each strain. Blank medium and blank medium with fungal solution were set as control simultaneously.
as §2, with “tromethamine” for “tromethamine hydrochloride salt”
as §2, with “phosphate” for “hydrochloride salt”, “µg/ml)” for “μg/ml)”
(§3) 2. The Anti-Fungal Function Detection of the Hexadecyl Tromethamine Benzene Sulfonate Test Method: The hexadecyl tromethamine benzene sulfonate solution was semi-diluted to five concentration gradients (100 μg/ml, 50 μg/ml, 25 μg/ml, 12.5 μg/ml and 6.25 µg/ml) by RPMI1640 fluid nutrient medium. 100 μl of every gradient solution was added in the 96-well plate for standby application. Standard fungal strain and clinical drug-resistant fungal strain in table 2 were chosen as the experimental fungus. The activation of the experimental fungus was obtained through that the experimental fungus were cultivated for 48 h at 30° C. The activated experimental fungus was matched to fungal suspension. […]

The next assay relates to Candida krusei 185429. Described as above. To be noted: Pichia kudriavzevii, Standard fungal strain Candida krusei 185429, incubated for 35 and 24 h, read-out: Minimum Inhibitory Concentration, MIC. Here is the method:
as §2
as §2, with “tromethamine” for “tromethamine hydrochloride salt”
as §2, with “phosphate” for “hydrochloride salt”, “µg/ml)” for “μg/ml)”
as §3

For assay [2], the system named is Candida lusitaniae 340928. Described as above. The following applies: Clavispora lusitaniae, Standard fungal strain Candida lusitaniae 340928, incubated for 35 and 24 h, read-out: Minimum Inhibitory Concentration, MIC. The protocol: as §2
as §2, with “tromethamine” for “tromethamine hydrochloride salt”
as §2, with “phosphate” for “hydrochloride salt”, “µg/ml)” for “μg/ml)”
as §3

The test system of assay [3] is Candida parapsilosis 191344. Described as above. To be noted: for MIC: Lodderomyces parapsilosis, 191344, Clinical drug-resistant fungal strain Candida parapsilosis 191344, incubated for 35 and 24 h, read-out: Minimum Inhibitory Concentration, MIC. The protocol:
as §2
as §2, with “tromethamine” for “tromethamine hydrochloride salt”
as §2, with “phosphate” for “hydrochloride salt”, “µg/ml)” for “μg/ml)”
as §3

In assay [4] the test system is Candida tropicalis 191327. Described as above. The following applies: Clinical drug-resistant fungal strain Candida tropicalis 191327, incubated for 35 and 24 h, read-out: Minimum Inhibitory Concentration, MIC. The protocol:
as §2
as §2, with “tromethamine” for “tromethamine hydrochloride salt”
as §2, with “phosphate” for “hydrochloride salt”, “µg/ml)” for “μg/ml)”
as §3

For assay [5], the system named is Candida tropicalis 191529. The assay is described as above. The following applies: Clinical drug-resistant fungal strain Candida tropicalis 191529, incubated for 35 and 24 h, read-out: Minimum Inhibitory Concentration, MIC. The protocol:
as §2
as §2, with “tromethamine” for “tromethamine hydrochloride salt”
as §2, with “phosphate” for “hydrochloride salt”, “µg/ml)” for “μg/ml)”
as §3

Turning to `CCCCCCCCCCCCCCCCNC(CO)(CO)CO.Cl` [2-(hexadecylamino)-2-(hydroxymethyl) propane-1,3-diol hydrochloride], the “The inhibition ratio (%)” value came out at 42% with AGS (2 μM); 99% in the assay on AGS (20 μM); 31% in the assay with MKN-45 (2 μM); 99% in the assay on MKN-45 (20 μM); 21% in the assay with SGC-7901 (2 μM); 100% with SGC-7901 (20 μM). For the same compound, the results for the “The inhibition ratio (%)” value in assay [1] (2 μM) and in assay [1] (20 μM) were 72% and 101%, respectively. Also, the “inhibitory effect (level reached on the inhibition curve, FIG. 3)” value in assay [1] (rises rapidly when the logarithmic value of compound concentration reached 3 nM) turned out to be 100%. The MIC in the assay on Candida glabrata 337348 was determined as 25 µg/mL; in the assay on Candida krusei 185429, 50 µg/mL; in [2] it was 25 µg/mL; in assay [3], 25 µg/mL; in assay [4], 25 µg/mL; in [5], 25 µg/mL.

For the compound `CCCCCCCCCCCCCCCCNC(CO)(CO)CO.O=S(=O)(O)c1ccccc1` [hexadecyl tromethamine benzene sulfonate], the “The inhibition ratio (%)” value in the assay with AGS (2 μM) is recorded as 38%; in the assay with AGS (20 μM), 95%; in the assay on MKN-45 (2 μM) it was 34%; in the assay with MKN-45 (20 μM), 100%; in the assay with SGC-7901 (2 μM) it was 23%; with SGC-7901 (20 μM), 98%. Moreover, the “The inhibition ratio (%)” value in assay [1] (2 μM) amounted to 62%; in assay [1] (20 μM), 96%. Also, the MIC came to 25 µg/mL in the assay on Candida glabrata 337348; 100 µg/mL in the assay on Candida krusei 185429; 25 µg/mL in assay [2]; 50 µg/mL in assay [3]; 50 µg/mL in assay [4]; 50 µg/mL in assay [5].

For the compound `CCCCCCCCCCCCCCCCNC(CO)(CO)CO` [hexadecyl tromethamine phosphate], the “The inhibition ratio (%)” value in the assay with AGS (2 μM, phosphate) is 44%; in the assay on AGS (20 μM, phosphate), 100%; with MKN-45 (2 μM, phosphate) it was 29%; in the assay with MKN-45 (20 μM, phosphate) it was 97%; in the assay with SGC-7901 (2 μM, phosphate) it was 25%; in the assay with SGC-7901 (20 μM, phosphate), 101%. For the same compound, the “The inhibition ratio (%)” value in assay [1] (2 μM, phosphate) is on record as 68%; in [1] (20 μM, phosphate) it was 99%. Further, the “Minimum Inhibitory Concentration, MIC” value amounted to 50 µg/mL in the assay on Candida glabrata 337348 (Standard fungal strain Candida glabrata 337348, incubated for 35 and 24 h, phosphate); 50 µg/mL in assay [3] (Clinical drug-resistant fungal strain Candida parapsilosis 191344, incubated for 35 and 24 h, phosphate).

Consider `CCCCCCCCCCCCCCCCNC(CO)(CO)CO` [hexadecyl tromethamine], for which the “The inhibition ratio (%)” value with AGS (2 μM) came to 43%; in the assay on AGS (20 μM), 99%; with MKN-45 (2 μM), 32%; with MKN-45 (20 μM), 98%; in the assay with SGC-7901 (2 μM), 24%; in the assay on SGC-7901 (20 μM) it was 102%. The figures for the “The inhibition ratio (%)” value in assay [1] (2 μM) and in [1] (20 μM) were 72% and 100%, respectively. Also, the MIC in the assay with Candida glabrata 337348 was determined as 25 µg/mL (≈ 72.3 µM); with Candida krusei 185429, 50 µg/mL (≈ 145 µM); in assay [2] it was 25 µg/mL (≈ 72.3 µM); in assay [3], 25 µg/mL (≈ 72.3 µM); in assay [4], 25 µg/mL (≈ 72.3 µM); in assay [5] it was 25 µg/mL (≈ 72.3 µM).
